Reference: US8642545B2, “Erythropoietin mimetic peptide derivative and its pharmaceutical salts, the preparation and uses thereof” (Jiangsu Hansoh Pharmaceutical Co., Ltd, priority 2007, dated 2014)
pKd: −log10 of the molar value. Where two headings read alike, the source gives them in different places. *1 amine or outer side, *2 acyl side, *3 side chain or, on linkers, in order; H or OH if unused. Bridges are numbered along the chain shown (N, C = ends). Roman numbers before positions name the chains, in order. [ ]: non-standard residue; d: D form. ξ: configuration not given here. X1 = NCCNC(=O)OC(CCC(=O)[*:1])CCC(=O)[*:2]; Nle = CCCC[C@H](N)C(=O)O; ξK = NCCCCC(N)C(=O)O; βAla = NCCC(=O)O

Key:
erythropoiesis of mice = test: Effects of EPO mimetic peptide derivatives on mice, sc injection on three consecutive days, peripheral blood cell and reticulocyte counts; format: in vivo, Kunming mice; conditions: for Platelet / White Blood Cell: 4.5 mg/kg
Description: The biological activity of EPO, or EPO mimetic peptide derivatives and their pharmaceutical salts provided by this invention can be determined by various assays known in this field. Testing of in vivo activity is performed as follows: mice are subcutaneously injected with EPO and EPO mimetic peptide derivatives and their pharmaceutical salts provided by this invention on three consecutive days. The mice are then sacrificed. The whole blood is taken to carry out peripheral blood cells and reticulocyte count. The blood cell count is performed by automatic blood cell counter. […] The dose of EPO protein as a control drug is 240 μ/kg. The drugs are administered three times per week and the administration continues for six weeks. The blood samples are collected to carry out related hematological index analysis. The purpose of the experiments is to evaluate and compare the effects of EPO mimetic peptide derivatives and the EPO protein on erythropoiesis of mice. […] EPO is purchased from […] Pharmaceutical Co., Ltd. Kunming mice are purchased from the Chinese Academy of Sciences Shanghai Experimental Animal Center, weighing 25 30 g, ♀. The number of animals in each group is 10. Mice are injected subcutaneously with EPO mimetic peptide derivatives and EPO protein for three consecutive days. Then the mice are killed, the whole blood is used to carry out peripheral blood cells and reticulocyte counts. Blood cell count is performed using automatic blood cell counter counts.

[1] = tested on: EPO binding sites on red blood cells from the spleen; conditions: about 400 binding sites, some, cited from earlier work
[2] = tested on: EPO binding sites on immature red blood cells; conditions: cited from earlier work
[3] = tested on: erythropoiesis of the macaques; test: Effects of EPO mimetic peptide derivatives on macaques, hematological indexes; format: in vivo
Description: The biological activity of EPO, or EPO mimetic peptide derivatives and their pharmaceutical salts provided by this invention can be determined by various assays known in this field. Testing of in vivo activity is performed as follows: mice are subcutaneously injected with EPO and EPO mimetic peptide derivatives and their pharmaceutical salts provided by this invention on three consecutive days. The mice are then sacrificed. The whole blood is taken to carry out peripheral blood cells and reticulocyte count. The blood cell count is performed by automatic blood cell counter. Pharmacodynamic studies are carried out by intravenous administration to macaques with a dose of 1.35 mg/kg. The dose of EPO protein as a control drug is 240 μ/kg. The drugs are administered three times per week and the administration continues for six weeks. The blood samples are collected to carry out related hematological index analysis.
The purpose of this experiment is to evaluate the effects of EPO mimetic peptide derivatives on erythropoiesis of the macaques.
EPO mimetic peptide HH-EPO-018 is provided by Jiangsu Hansoh Pharmaceutical co., LTD. EPO is purchased from Shenyang Sansheng Pharmaceutical Co., Ltd. The samples are diluted in a saline containing 0.1% BSA before they are used.
Macaques, weighing 5.5˜8.5 kg, male or female, are purchased from Suzhou Xishan Zhongke Laboratory Animal Center. Macaques are grouped according to the basis of hemoglobin with each group having three macaques. HH-EPO-018 is intravenously injected once at a dose of 1.35 mg/kg; EPO is injected three times per week at a dose of 240 μg/kg. The administration is continued for five weeks. Measure hematological indexes are measured 1˜2 times per week.

[4] = current dosage regimen, three consecutive days
[5] = macaques, 240 μg/kg three times per week, five weeks

I: Ac-GGTYSCHFGPLTWVCRPQRG[βAla][ξK]-NH2 / II: Ac-GGTYSCHFGPLTWVCRPQRG[βAla][ξK]-NH2 (disulfide I:6-I:15, II:6-II:15; linker I:22-II:22 via X1) [HH-EPO-005]
Platelet (erythropoiesis of mice; mouse, d1-3): 1957.8 ± 349.5 ×10^3/μL | White Blood Cell (erythropoiesis of mice; mouse, d1-3): 4.2 ± 1.2 ×10^3/μL

EPO: EPO protein purchased from Shenyang Sansheng Pharmaceutical Co., Ltd.; control drug
pKd ([1]; "high Kd"): 10.00 | pKd ([1]; "low Kd"): 9.10 | influence on mature red blood cells, blood cell hematocrit, hemoglobin content (in words) (erythropoiesis of mice; [4]): no significant influence | mouse peripheral blood reticulocyte count (in words) (erythropoiesis of mice; [4]): significantly promote the increase | Blood Cell Hematocrit (erythropoiesis of mice; mouse, 5 μg/kg, d1-3): 46.2 ± 2.7% | Red Blood Cell Count (erythropoiesis of mice; mouse, 5 μg/kg, d1-3, x ± SD): 9.0 ± 0.6 ×10^6/μL | Reticulocyte Count (erythropoiesis of mice; mouse, 5 μg/kg, d1-3, x ± SD): 483.9 ± 146.5 ×10^9/L | influence on the peripheral white blood cell count (in words) (erythropoiesis of mice; mouse, in vivo): no significant influence | pKd ([2]; about 300 binding sites of about 800 to 1000 per cell membrane): 10.05 | pKd ([2]; remaining binding sites, weak binding): ~9.24 | stimulation on macaque hemoglobin generation, HH-EPO-018 compared with EPO (in words) ([3]; according to the current dosing regimens): similar | blood cell hematocrit (in words) [3, 5]: increases | peripheral blood hemoglobin content (in words) [3, 5]: increases

I: Ac-GGTYSCHFGSLTWVCRPQRG[βAla][ξK]-NH2 / II: Ac-GGTYSCHFGSLTWVCRPQRG[βAla][ξK]-NH2 (disulfide I:6-I:15, II:6-II:15; linker I:22-II:22 via X1) [HH-EPO-007]
Platelet (erythropoiesis of mice; mouse, d1-3): 2082.1 ± 863.9 ×10^3/μL | White Blood Cell (erythropoiesis of mice; mouse, d1-3): 3.6 ± 0.8 ×10^3/μL

I: Ac-GGTYSC[Nle]FGPLTWVCRPQRG[βAla][ξK]-NH2 / II: Ac-GGTYSC[Nle]FGPLTWVCRPQRG[βAla][ξK]-NH2 (disulfide I:6-I:15, II:6-II:15; linker I:22-II:22 via X1) [HH-EPO-006]
Platelet (erythropoiesis of mice; mouse, d1-3): 1087.8 ± 118.5 ×10^3/μL | White Blood Cell (erythropoiesis of mice; mouse, d1-3): 4.1 ± 1.2 ×10^3/μL

I: Ac-GGTYSCHFGALTWVCRPQRG[βAla][ξK]-NH2 / II: Ac-GGTYSCHFGALTWVCRPQRG[βAla][ξK]-NH2 (disulfide I:6-I:15, II:6-II:15; linker I:22-II:22 via X1) [HH-EPO-008]
Platelet (erythropoiesis of mice; mouse, d1-3): 1685.5 ± 351.3 ×10^3/μL | White Blood Cell (erythropoiesis of mice; mouse, d1-3): 2.9 ± 0.5 ×10^3/μL
